# System: NMNAT2
# Assay: NMNAT2-Hibit nano-luciferase activity in stably transfected U87MG cells, various concentrations, 24 hours
# Assay type: cell-based
# Conditions: U87MG cells stably transfected with NMNAT2-Hibit luc plasmid
# Method: Selected compounds were tested in vitro. U87MG cells were stably transfected with NMNAT2-Hibit luc plasmid. Cells were treated with a test compound at various concentrations for 24 hours. Cells were then collected and assayed for nano-luciferase activity.
row,SMILES,E: compound efficacy for NMNAT2 activation (concentration giving >25% increase in NMNAT2 luciferase activity)
1,Cc1ccc(C)c(Cn2cc([C@H]3C[C@@H]3C(=O)NCc3ccc(C)o3)c3ccccc32)c1 (racemic) [BC20345],+ (“+” >25% increase in NMNAT2 luciferase activity at >25 μM.)
2,Cc1ccc(C)c(Cn2cc([C@H]3C[C@@H]3C(=O)NCc3cccc(F)c3)c3ccccc32)c1 (racemic) [BC20346],+ (“+” >25% increase in NMNAT2 luciferase activity at >25 μM.)
3,Cc1ccc(C)c(Cn2cc([C@H]3C[C@@H]3C(=O)NCc3ccccc3C)c3ccccc32)c1 (racemic) [BC20347],++ (“++” >25% increase in NMNAT2 luciferase activity at >1 μM ≤25 μM.)
4,Cc1cccc(CNC(=O)[C@H]2C[C@@H]2c2cn(Cc3cc(C)ccc3C)c3ccccc23)c1 (racemic) [BC20348],+ (“+” >25% increase in NMNAT2 luciferase activity at >25 μM.)
5,COc1ccccc1CNC(=O)[C@H]1C[C@@H]1c1cn(Cc2cc(C)ccc2C)c2ccccc12 (racemic) [BC20349],+ (“+” >25% increase in NMNAT2 luciferase activity at >25 μM.)
6,COc1cccc(CNC(=O)[C@H]2C[C@@H]2c2cn(Cc3cc(C)ccc3C)c3ccccc23)c1 (racemic) [BC20350],+ (“+” >25% increase in NMNAT2 luciferase activity at >25 μM.)
7,Cc1ccc(C)c(Cn2cc([C@H]3C[C@@H]3C(=O)NCc3cccnc3)c3ccccc32)c1 (racemic) [BC20351],+ (“+” >25% increase in NMNAT2 luciferase activity at >25 μM.)
8,Cc1ccc(C)c(Cn2cc([C@H]3C[C@@H]3C(=O)NCc3ccncc3)c3ccccc32)c1 (racemic) [BC20352],+ (“+” >25% increase in NMNAT2 luciferase activity at >25 μM.)
9,CCCCN(CC)Cc1ccc(CNC(=O)[C@H]2C[C@@H]2c2cn(Cc3cc(C)ccc3C)c3ccccc23)o1 (racemic) [BC20353],++ (“++” >25% increase in NMNAT2 luciferase activity at >1 μM ≤25 μM.)
10,Cc1ccc(C)c(Cn2cc([C@H]3C[C@@H]3C(=O)N3CCc4occc4C3)c3ccccc32)c1 (racemic) [BC20359],+ (“+” >25% increase in NMNAT2 luciferase activity at >25 μM.)
11,Cc1ccc(C)c(Cn2cc([C@H]3C[C@@H]3C(=O)NCCc3ccccc3)c3ccccc32)c1 (racemic) [BC20360],++ (“++” >25% increase in NMNAT2 luciferase activity at >1 μM ≤25 μM.)
12,Cc1ccc(C)c(Cn2cc([C@H]3C[C@@H]3C(=O)NC(C)Cc3ccco3)c3ccccc32)c1 (mixture of isomers) [BC20363],++ (“++” >25% increase in NMNAT2 luciferase activity at >1 μM ≤25 μM.)
13,Cc1ccc(C)c(Cn2cc([C@H]3C[C@@H]3C(=O)N(CCN(C)C)Cc3ccco3)c3ccccc32)c1 (racemic) [BC20364],+++ (“+++” >25% increase in NMNAT2 luciferase activity at ≤1 μM.)
14,COCCN(CCNC(=O)[C@H]1C[C@@H]1c1cn(Cc2cc(C)ccc2C)c2ccccc12)Cc1ccco1 (racemic) [BC20365],+ (“+” >25% increase in NMNAT2 luciferase activity at >25 μM.)
15,Cc1ccc(C)c(Cn2cc([C@H]3C[C@@H]3C(=O)NCc3ccccn3)c3ccccc32)c1 (racemic) [BC20366],+ (“+” >25% increase in NMNAT2 luciferase activity at >25 μM.)
16,Cc1c(C)n(Cc2ccccc2F)c2ccc(C(=O)NCc3ccco3)cc12 [BC20100],++ (“++” >25% increase in NMNAT2 luciferase activity at >1 μM ≤25 μM.)
17,Cc1c(C)n(Cc2cccc(F)c2)c2ccc(C(=O)NCc3ccco3)cc12 [BC20101],+++ (“+++” >25% increase in NMNAT2 luciferase activity at ≤1 μM.)
18,Cc1ccc(C)c(Cn2c3c(c4ccccc42)CC(C(=O)NCc2ccco2)CC3)c1 (stereo not drawn) [BC20102],++ (“++” >25% increase in NMNAT2 luciferase activity at >1 μM ≤25 μM.)
19,Cc1c(C)n(Cc2ccccc2F)c2ccc(C(=O)NCc3ccccc3F)cc12 [BC20103],+++ (“+++” >25% increase in NMNAT2 luciferase activity at ≤1 μM.)
20,Cc1c(C)n(Cc2ccccc2F)c2ccc(C(=O)NCc3cccc(F)c3)cc12 [BC20104],++ (“++” >25% increase in NMNAT2 luciferase activity at >1 μM ≤25 μM.)
21,Cc1ccccc1CNC(=O)c1ccc2c(c1)c(C)c(C)n2Cc1ccccc1F [BC20105],++ (“++” >25% increase in NMNAT2 luciferase activity at >1 μM ≤25 μM.)

row,SMILES,E: compound efficacy for NMNAT2 activation (concentration giving >25% increase in NMNAT2 luciferase activity)
1,COc1ccccc1CNC(=O)c1ccc2c(c1)c(C)c(C)n2Cc1ccccc1F [BC20106],++ (“++” >25% increase in NMNAT2 luciferase activity at >1 μM ≤25 μM.)
2,Cc1c(C)n(Cc2ccccc2F)c2ccc(C(=O)N3CCN(C(=O)c4ccco4)CC3)cc12 [BC20107],++ (“++” >25% increase in NMNAT2 luciferase activity at >1 μM ≤25 μM.)
3,Cc1c(C)n(Cc2ccccc2F)c2ccc(C(=O)NCc3cccnc3)cc12 [BC20108],+++ (“+++” >25% increase in NMNAT2 luciferase activity at ≤1 μM.)
4,Cc1ccc(CNC(=O)c2ccc3c(c2)c(C)c(C)n3Cc2cccc(F)c2)o1 [BC20109],++ (“++” >25% increase in NMNAT2 luciferase activity at >1 μM ≤25 μM.)
5,Cc1c(C)n(Cc2cccc(F)c2)c2ccc(C(=O)NCC3CCCO3)cc12 (stereo not drawn) [BC20110],+++ (“+++” >25% increase in NMNAT2 luciferase activity at ≤1 μM.)
6,Cc1c(C)n(Cc2cccc(F)c2)c2ccc(C(=O)NCc3cccc(F)c3)cc12 [BC20112],+++ (“+++” >25% increase in NMNAT2 luciferase activity at ≤1 μM.)
7,Cc1ccccc1CNC(=O)c1ccc2c(c1)c(C)c(C)n2Cc1cccc(F)c1 [BC20113],++ (“++” >25% increase in NMNAT2 luciferase activity at >1 μM ≤25 μM.)
8,Cc1cccc(CNC(=O)c2ccc3c(c2)c(C)c(C)n3Cc2cccc(F)c2)c1 [BC20114],++ (“++” >25% increase in NMNAT2 luciferase activity at >1 μM ≤25 μM.)
9,COc1ccccc1CNC(=O)c1ccc2c(c1)c(C)c(C)n2Cc1cccc(F)c1 [BC20115],++ (“++” >25% increase in NMNAT2 luciferase activity at >1 μM ≤25 μM.)
10,COc1cccc(CNC(=O)c2ccc3c(c2)c(C)c(C)n3Cc2cccc(F)c2)c1 [BC20116],++ (“++” >25% increase in NMNAT2 luciferase activity at >1 μM ≤25 μM.)
11,Cc1c(C)n(Cc2cccc(F)c2)c2ccc(C(=O)N3CCN(C(=O)c4ccco4)CC3)cc12 [BC20117],++ (“++” >25% increase in NMNAT2 luciferase activity at >1 μM ≤25 μM.)
12,Cc1c(C)n(Cc2cccc(F)c2)c2ccc(C(=O)NC(C)Cc3ccco3)cc12 (stereo not drawn) [BC20118],++ (“++” >25% increase in NMNAT2 luciferase activity at >1 μM ≤25 μM.)
13,Cc1c(C)n(Cc2cccc(F)c2)c2ccc(C(=O)NCc3ccncc3)cc12 [BC20119],+++ (“+++” >25% increase in NMNAT2 luciferase activity at ≤1 μM.)
14,CCCCN(CC)Cc1ccc(CNC(=O)c2ccc3c(c2)c(C)c(C)n3Cc2cccc(F)c2)o1 [BC20120],+++ (“+++” >25% increase in NMNAT2 luciferase activity at ≤1 μM.)
15,O=C(CCCc1cn(Cc2ccccc2F)c2ccccc12)NCc1ccco1 [BC20121],++ (“++” >25% increase in NMNAT2 luciferase activity at >1 μM ≤25 μM.)
16,Cc1ccc(CNC(=O)CCCc2cn(Cc3ccccc3F)c3ccccc23)o1 [BC20122],++ (“++” >25% increase in NMNAT2 luciferase activity at >1 μM ≤25 μM.)
17,O=C(CCCc1cn(Cc2ccccc2F)c2ccccc12)NCC1CCCO1 (stereo not drawn) [BC20123],++ (“++” >25% increase in NMNAT2 luciferase activity at >1 μM ≤25 μM.)
18,O=C(CCCc1cn(Cc2ccccc2F)c2ccccc12)NCc1cccc(F)c1 [BC20124],++ (“++” >25% increase in NMNAT2 luciferase activity at >1 μM ≤25 μM.)
19,Cc1ccccc1CNC(=O)CCCc1cn(Cc2ccccc2F)c2ccccc12 [BC20125],++ (“++” >25% increase in NMNAT2 luciferase activity at >1 μM ≤25 μM.)
20,Cc1cccc(CNC(=O)CCCc2cn(Cc3ccccc3F)c3ccccc23)c1 [BC20126],++ (“++” >25% increase in NMNAT2 luciferase activity at >1 μM ≤25 μM.)
21,COc1ccccc1CNC(=O)CCCc1cn(Cc2ccccc2F)c2ccccc12 [BC20127],++ (“++” >25% increase in NMNAT2 luciferase activity at >1 μM ≤25 μM.)

# Reference: US20220169632A1, “METHODS AND MATERIALS FOR INCREASING OR MAINTAINING NICOTINAMIDE MONONUCLEOTIDE ADENYLYL TRANSFERASE-2 (NMNAT2) POLYPEPTIDE LEVELS” (University of Pittsburgh - Of the Commonwealth System of …, priority 2019, published 2022)
